# Results reported in the NIST ThermoML archive (doi:10.1016/j.tca.2005.06.011).
# ± gives the expanded uncertainty stated by the source.
# Assay: excess molar enthalpy (molar enthalpy of mixing); xn = mol fraction of the nth substance listed
# Settings: 298.15 K, 101 kPa, Liquid, Flow calorimetry
structure (smiles),measurement,setting,value
CC(C)O [propan-2-ol] + CCCO,excess molar enthalpy,x2 = 0.2499,-0.00906 ± 0.000263 kcal/mol
same,excess molar enthalpy,x2 = 0.5,-0.0108 ± 0.000263 kcal/mol
same,excess molar enthalpy,x2 = 0.75,-0.00837 ± 0.000239 kcal/mol
